Laboratory results reported in ChEMBL document CHEMBL4354855 (J Med Chem, 2020).

Assays:
[1] = Stability of the compound in GSH assessed as parent compound remaining measured after 24 hrs; format: physicochemical; conditions: GSH (glutathione); read-out: Stability
[2] = Half life in human plasma; format: ADME, cell-free
[3] = Lipophilicity, log P of the compound; format: physicochemical; conditions: octanol/water
[4] = Drug level in OFA-1 rat blood at 3 mg/kg, po measured after 5 hrs; format: ADME, organism-based; conditions: whole blood, read-out: Drug uptake
[5] = Intrinsic clearance in rat liver microsomes; format: ADME, Microsome; conditions: read-out: CLH
[6] = Oral bioavailability in OFA-1 rat at 10 mg/kg; format: ADME, organism-based; conditions: in vivo
[7] = Drug level in OFA-1 rat blood at 10 mg/kg, po measured after 5 hrs; format: ADME, organism-based; conditions: whole blood, read-out: Drug uptake
[8] = Clearance in OFA-1 rat at 3 mg/kg, po; format: ADME, organism-based; conditions: in vivo
[9] = Thermodynamic solubility of the compound at pH 1; format: physicochemical; conditions: buffer, read-out: Therm_solubility
[10] = Volume of distribution at steady state in Beagle dog at 1 mg/kg, iv or 3 mg/kg, po; format: ADME, organism-based, Canis lupus familiaris; conditions: in vivo, read-out: Vdss
[11] = Oral bioavailability in Lewis rat at 3 mg/kg; format: ADME, organism-based; conditions: in vivo
[12] = Dose normalized Cmax in C57BL/6 mouse at 1 mg/kg, iv or 3 mg/kg, po; format: ADME, organism-based; conditions: in vivo
[13] = Tmax in Beagle dog at 1 mg/kg, iv or 3 mg/kg, po; format: ADME, organism-based, Canis lupus familiaris; conditions: in vivo
[14] = Dose normalized AUC in Beagle dog at 3 mg/kg, po; format: ADME, organism-based, Canis lupus familiaris; conditions: in vivo
[15] = Drug level in OFA-1 rat at 1 mg/kg, po measured after 0.5 hrs; format: ADME, organism-based; conditions: in vivo, read-out: Drug uptake
[16] = Oral bioavailability in Beagle dog at 3 mg/kg; format: ADME, organism-based, Canis lupus familiaris; conditions: in vivo
[17] = Clearance in C57BL/6 mouse at 1 mg/kg, iv or 3 mg/kg, po; format: ADME, organism-based; conditions: in vivo
[18] = Oral bioavailability in C57BL/6 mouse at 3 mg/kg; format: ADME, organism-based; conditions: in vivo
[19] = Dose normalized AUC in C57BL/6 mouse at 3 mg/kg, po; format: ADME, organism-based; conditions: in vivo
[20] = Half life in Lewis rat at 1 mg/kg, iv or 3 mg/kg, po; format: ADME, organism-based; conditions: in vivo
[21] = Intrinsic clearance in mouse liver microsomes; format: ADME, Microsome; conditions: read-out: CLH
[22] = Intrinsic clearance in dog liver microsomes; format: ADME, Canis lupus familiaris, Microsome; conditions: read-out: CLH
[23] = Dose normalized Cmax in Lewis rat at 1 mg/kg, iv or 3 mg/kg, po; format: ADME, organism-based; conditions: in vivo
[24] = Clearance in Beagle dog at 1 mg/kg, iv or 3 mg/kg, po; format: ADME, organism-based, Canis lupus familiaris; conditions: in vivo
[25] = Drug level in OFA-1 rat at 1 mg/kg, po measured after 5 hrs; format: ADME, organism-based; conditions: in vivo, read-out: Drug uptake
[26] = Dose normalized Cmax in Beagle dog at 1 mg/kg, iv or 3 mg/kg, po; format: ADME, organism-based, Canis lupus familiaris; conditions: in vivo
[27] = Tmax in C57BL/6 mouse at 1 mg/kg, iv or 3 mg/kg, po; format: ADME, organism-based; conditions: in vivo
[28] = Volume of distribution at steady state in Lewis rat at 1 mg/kg, iv or 3 mg/kg, po; format: ADME, organism-based; conditions: in vivo, read-out: Vdss
[29] = Clearance in Lewis rat at 1 mg/kg, iv or 3 mg/kg, po; format: ADME, organism-based; conditions: in vivo
[30] = Tmax in Lewis rat at 1 mg/kg, iv or 3 mg/kg, po; format: ADME, organism-based; conditions: in vivo
[31] = Volume of distribution at steady state in C57BL/6 mouse at 1 mg/kg, iv or 3 mg/kg, po; format: ADME, organism-based; conditions: in vivo, read-out: Vdss
[32] = Half life in Beagle dog at 1 mg/kg, iv or 3 mg/kg, po; format: ADME, organism-based, Canis lupus familiaris; conditions: in vivo
[33] = Half life in C57BL/6 mouse at 1 mg/kg, iv or 3 mg/kg, po; format: ADME, organism-based; conditions: in vivo
[34] = Thermodynamic solubility of the compound at pH 6.8; format: physicochemical; conditions: buffer, read-out: Therm_solubility
[35] = Dose normalized AUC in Lewis rat at 3 mg/kg, po; format: ADME, organism-based; conditions: in vivo

Molecule `CC#CC(=O)N(C)CCOc1c(N)ncnc1-c1cc(F)cc(NC(=O)c2ccc(C3CC3)cc2F)c1C` has a remaining at 24 h [1] of 79.6%.

Work on `C=CC(=O)N(CC)CCOc1c(N)ncnc1-c1cc(F)cc(NC(=O)c2ccc(C3CC3)cc2F)c1C` yielded a half-life [2] of over 120 min and a logP [3] of 3.6.

Work on `Cc1c(NC(=O)c2ccc(C3CC3)cc2F)cc(F)cc1-c1ncnc(N)c1OCCN(C)C(=O)/C=C/CN(C)C` yielded a remaining at 24 h [1] of 60.8%.

Molecule `C=CC(=O)N1CCC(Oc2c(N)ncnc2-c2cc(F)cc(NC(=O)c3ccc(C4CC4)cc3F)c2C)CC1` has a half-life [2] of over 120 min and a concentration at 5 h [4] of 207 nM.

For `C=CC(=O)N(C)CC/C=C/c1c(N)ncnc1-c1cc(F)cc(NC(=O)c2ccc(C3CC3)cc2)c1C`, the microsomal CLint [5] was 815 µL/min/mg.

`C=CC(=O)N1CC(Oc2c(N)ncnc2-c2cc(F)cc(NC(=O)c3ccc(C4CC4)cc3)c2C)C1` gave a bioavailability [6] of 5%, a concentration at 5 h [7] of 13 nM and a microsomal CLint [5] of 25 µL/min/mg.

In the case of `C#CC(=O)N(C)CCOc1c(N)ncnc1-c1cc(F)cc(NC(=O)c2ccc(C3CC3)cc2F)c1C`, the half-life [2] is reported as 96 min and the remaining at 24 h [1] is reported as 0.1%.

Work on `C=CC(=O)N1CCC[C@H]1COc1c(N)ncnc1-c1cc(F)cc(NC(=O)c2ccc(C3CC3)cc2F)c1C` yielded a half-life [2] of over 120 min.

With `C=CC(=O)N(C)C/C=C/c1c(N)ncnc1-c1cc(F)cc(NC(=O)c2ccc(C3CC3)cc2F)c1C` the half-life [2] was over 120 min and the CL/F [8] was 307 mL/min/kg.

`C=CC(=O)NCCOc1c(N)ncnc1-c1cc(F)cc(NC(=O)c2ccc(C3CC3)cc2F)c1C` gave a half-life [2] of over 120 min.

Molecule `C=CC(=O)N(C)C/C=C/c1c(N)ncnc1-c1cc(F)cc(NC(=O)c2ccc(C3CC3)cc2)c1C` has a microsomal CLint [5] of 924 µL/min/mg.

In the case of `C=CC(=O)N1CC(Oc2c(N)ncnc2-c2cc(F)cc(NC(=O)c3ccc(C4CC4)cc3F)c2C)C1`, the bioavailability [6] is reported as 51% and the half-life [2] is reported as 35 min.

`C/C=C/C(=O)N(C)CCOc1c(N)ncnc1-c1cc(F)cc(NC(=O)c2ccc(C3CC3)cc2F)c1C` showed a remaining at 24 h [1] of 95.8%.

In the case of `C=CC(=O)N1CC[C@H]1COc1c(N)ncnc1-c1cc(F)cc(NC(=O)c2ccc(C3CC3)cc2F)c1C`, the half-life [2] is reported as 42 min.

`C=CC(=O)N1CCC(Oc2c(N)ncnc2-c2cc(F)cc(NC(=O)c3ccc(C4CC4)cc3)c2C)C1` (stereo not drawn) showed a microsomal CLint [5] of 135 µL/min/mg.

`C=CC(=O)N(C)CCOc1c(N)ncnc1-c1cc(F)cc(NC(=O)c2ccc(C3CC3)cc2F)c1C` [REMIBRUTINIB] showed a solubility thermodynamic [9] of over 1500 µg/mL, a Vd [10] of 1 L/kg and a bioavailability [11] of 29%. It also gave a Cmax/dose [12] of 53 nM, a Tmax [13] of 48 min and an AUC/dose [14] of 55 nM·h. The concentration at 0.5 h [15] was 49.1 nM, the bioavailability [16] was 5% and the clearance [17] was 97 mL/min/kg. For the same molecule, the bioavailability [18] was 16%, the AUC/dose [19] was 54 nM·h and the half-life [20] was 30 min. For the same molecule, the microsomal CLint [21] was 325 µL/min/mg, the microsomal CLint [22] was 146 µL/min/mg and the Cmax/dose [23] was 148 nM. For the same molecule, the half-life [2] was over 120 min, the clearance [24] was 29 mL/min/kg and the remaining at 24 h [1] was 68.5%. For the same molecule, the microsomal CLint [5] was 33 µL/min/mg, the concentration at 5 h [25] was 5.6 nM and the Cmax/dose [26] was 19 nM. The Tmax [27] was 18 min, the Vd [28] was 1.4 L/kg and the logP [3] was 2.9. The clearance [29] was 44 mL/min/kg, the Tmax [30] was 18 min and the Vd [31] was 1 L/kg. For the same molecule, the half-life [32] was 54 min, the half-life [33] was 60 min and the solubility thermodynamic [34] was under 3 µg/mL. It also gave an AUC/dose [35] of 225 nM·h.
